This assay has as its target T1, RORc (Homo sapiens, UniProt P51449).
T1 construct: host or cells: E. coli
T1 sequence (P51449 269-508 limits assumed): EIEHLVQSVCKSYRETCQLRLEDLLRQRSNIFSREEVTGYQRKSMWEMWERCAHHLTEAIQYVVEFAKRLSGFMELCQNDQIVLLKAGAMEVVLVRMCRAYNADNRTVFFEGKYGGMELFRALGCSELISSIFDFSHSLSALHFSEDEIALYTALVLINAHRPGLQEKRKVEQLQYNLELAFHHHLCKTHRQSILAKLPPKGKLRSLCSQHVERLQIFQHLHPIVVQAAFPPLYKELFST
In words: In Vitro RORc Ligand Binding Assay. Particulars: IC50 values for RORc. How it is done: This assay was used to determine a compound's potency in inhibiting activity of RORc by determining, Kiapp, IC50, or percent inhibition values.
On day of the assay, 100 uL of 0.05% CHAPS (in deionized H2O) was added to all wells of the GFB Unifilter plate and allowed soak for 1 h. A wash buffer of 50 mM HEPES (pH 7.4), 150 mM NaCl, and 5 mM MgCl2 was prepared to wash the filter plate. To prepare an assay buffer, BSA was added to the wash buffer to reach 0.01% and DTT was added to reach 1 mM.
The 20× compound stocks were diluted in DMSO with Assay Buffer 4-fold to reach 5× the final test concentration in 25% DMSO (10 uL compound+30 uL Assay Buffer). Solutions were mixed by aspiration several times with a pipette set on 50 uL volume.
For two point screening, 10 mM stock compound solutions were diluted in DMSO to obtain 200 uM (20× the high test concentration) and then diluted 10-fold further to reach 20 uM (20× the low test concentration). The 20× stocks were diluted 4-fold with Assay Buffer (10 uL compound+30 uL Assay Buffer) to reach 5× the test concentrations (50 uM and 5 uM) and 10 uL were added to two assay plates for the duplicate wells. With each concentration tested on 2 plates, each set of 80 compounds used 4 assay plates (1 uM and 10 uM, with n=2).
For 25-hydroxycholesterol in 25% DMSO/75% Assay Buffer; 10 uL per well was used for NSB samples. Wells for Total Binding and No Receptor sample determination contained 10 uL of 25% DMSO/75% Assay Buffer per well.
Add 20 uL to all wells to reach 6 nM final concentration in the assay.
Stock receptor solution was diluted in assay buffer to obtain 1.5 ug/mL in Assay Buffer. 20 uL was added to all wells. For No Receptor samples, 20 uL Assay Buffer was substituted for receptor solution.
Assay plates were 96-well polypropylene V-bottom plates. […] 10 uL of 25% DMSO/75% Assay Buffer was added to Total Binding or No Receptor wells. 10 uL of 5 uM 25-hydroxycholesterol in 25% DMSO/75% Assay Buffer was added to NSB wells. […] 20 uL of 1.5 ug/mL RORc receptor was added to wells (or 40 uL Assay Buffer to No R wells). Following addition to the wells, the plates were incubated 3 h at 25° C.
Using a Packard Filtermate Harvester, the filter plate were washed 4 times following transfer of the incubated samples. Plates were dry-filtered completely (2 h at 50° C. or overnight at room temperature). 50 uL Microscint 0 was added to all wells and read on Topcount protocol Inverted.
Final concentrations were as follows: 50 mM HEPES buffer (pH 7.4); 150 mM NaCl; 1 mM DTT; 5 mM MgCl2; 0.01% BSA; 5% DMSO; 0.6 ug/mL RORc receptor; 6 nM 25-[^3H]hydroxycholesterol. For NSB wells, 1 uM 25-hydroxycholesterol was also present.
In the case of `C[C@H]1CC[C@H](c2ccccc2)S(=O)(=O)N1Cc1cc(F)c([C@H](OCC2CC2)C(N)=O)cc1F` [Compound 19, (2S)-2-(cyclopropylmethoxy)-2-[2,5-difluoro-4-[[(3S,6R)-3-methyl-1,1-dioxo-6-phenyl-thiazinan-2-yl]methyl]phenyl]acetamide], the IC50 – broadly, the concentration that inhibits the measured activity by half – was found to be 0.0507 µM. This counts as double-digit nanomolar.
In turn, `C[C@H]1CC[C@H](c2ccccc2)S(=O)(=O)N1Cc1cc(F)c(C(C)(C)NCC(N)=O)cc1F` [Compound 20, 2-[[1-[2,5-difluoro-4-[[(3S,6R)-3-methyl-1,1-dioxo-6-phenyl-thiazinan-2-yl]methyl]phenyl]-1-methyl-ethyl]amino]acetamide] registered an IC50 of 0.0042 µM.
The same measure for `C[C@H]1CC[C@H](c2ccccc2)S(=O)(=O)N1Cc1cc(F)c(C2(NCC(N)=O)CC(F)(F)C2)cc1F` [Compound 21, 2-[[1-[2,5-difluoro-4-[[(3S,6R)-3-methyl-1,1-dioxo-6-phenyl-thiazinan-2-yl]methyl]phenyl]-3,3-difluoro-cyclobutyl]amino]acetamide]: 0.0015 µM; for `C[C@@H](NC1=CC(=O)CCC1)c1cc(F)c(CN2[C@@H](C)CC[C@H](c3ccccc3)S2(=O)=O)cc1F` [Compound 22, 3-[[(1R)-1-[2,5-difluoro-4-[[(3S,6R)-3-methyl-1,1-dioxo-6-phenyl-thiazinan-2-yl]methyl]phenyl]ethyl]amino] cylohex-2-en-1-one]: 0.265 µM; for `C[C@H](NC1=CC(=O)CCC1)c1cc(F)c(CN2[C@@H](C)CC[C@H](c3ccccc3)S2(=O)=O)cc1F` [Compound 26, 3-[[(1S)-1-[2,5-difluoro-4-[[(3S,6R)-3-methyl-1,1-dioxo-6-phenyl-thiazinan-2-yl]methyl]phenyl]ethyl]amino] cyclohex-2-en-1-one]: 0.131 µM.
The compound `C[C@H]1CC[C@H](c2ccccc2)S(=O)(=O)N1Cc1cc(F)c(C23CC(C)(C2)OC3=O)cc1F` [Compound 27, 4-[2,5-difluoro-4-[[(3S,6R)-3-methyl-1,1-dioxo-6-phenyl-thiazinan-2-yl]methyl]phenyl]-1-methyl-2-oxabicyclo[2.1.1]hexan-3-one] showed an IC50 of 0.0217 µM.
The same measure for `CNC(=C[N+](=O)[O-])NC(C)c1cc(F)c(CN2C(C)CCC(c3ccccc3)S2(=O)=O)cc1F` [Compound 28, N1′-[1-[2,5-difluoro-4-[[(3S,6R)-3-methyl-1,1-dioxo-6-phenyl-thiazinan-2-yl]methyl]phenyl]ethyl]-N1-methyl-2-nitro-ethene-1,1-diamine]: 0.02 µM; for `CC(NCC(N)=O)c1cc(F)c(CN2[C@@H](C)CC[C@H](c3ccccc3)S2(=O)=O)cc1F` (stereo partly drawn) [Compound 29, 2-[1-[2,5-difluoro-4-[[(3S,6R)-3-methyl-1,1-dioxo-6-phenyl-thiazinan-2-yl]methyl]phenyl]ethylamino] acetamide]: 0.0564 µM; for `C[C@H]1CC[C@H](c2ccccc2)S(=O)(=O)N1Cc1ccc(C2(C(=O)NC3CC3)CCOCC2)cc1F` [Compound 30, N-cyclopropyl-4-[3-fluoro-4-[[(3S,6R)-3-methyl-1,1-dioxo-6-phenyl-thiazinan-2-yl]methyl]phenyl]tetrahydropyran-4-carboxamide]: 0.129 µM.
In turn, `C[C@H]1CC[C@H](c2ccccc2)S(=O)(=O)N1Cc1ccc(C2(C(=O)NCC3CC3)CCOCC2)cc1F` [Compound 31, N-(cyclopropylmethyl)-4-[3-fluoro-4-[[(3S,6R)-3-methyl-1,1-dioxo-6-phenyl-thiazinan-2-yl]methyl]phenyl]tetrahydropyran-4-carboxamide] displayed an IC50 of 0.0835 µM. This IC50 lies about 1.5-fold lower than the previous one.
`CO[C@H]1C[C@@H](NC(=O)C2(c3ccc(CN4[C@@H](C)CC[C@H](c5ccccc5)S4(=O)=O)c(F)c3)CCOCC2)C1` [Compound 32, 4-[3-fluoro-4-[[(3S,6R)-3-methyl-1,1-dioxo-6-phenyl-thiazinan-2-yl]methyl]phenyl]-N-(3-methoxycyclobutyl)tetrahydropyran-4-carboxamide] registered an IC50 of 0.0535 µM.

The record behind these values is US20180263996A1, “ARYL SULTAM DERIVATIVES AS RORc MODULATORS” (Genentech, Inc., priority 2015, published 2018).
